Patent publication US7416876B2, “N-carbobenzyloxy (N-CBZ)-deprotecting enzyme” (Bristol-Meyers Squibb Company, priority 2001, dated 2008)

What was measured:
[1] = system: Sphingomonas paucimobilis; experiment: Biotransformation (CBZ deprotection) using whole cells; assay type: cell-based; details: whole cells grown in medium B with 25 mg substrate, 28° C., 48 hours, HPLC
Procedure: In this process, the Sphingomonas paucimobilis was grown in 25 mL of medium B containing 25 mg of substrate (Compound A or CBZ-L-Phenylalanine) in a 250-mL flask. The flask was incubated at 28° C. and 250 rpm on a shaker. After 48 hours of biotransformation, the cells were removed by centrifugation. The supernatant containing the product [4S-(4α,7α,10aβ)]-Octahydro-5-oxo-4-amino-7H-pyrido-[2,1-b] [1,3]thiazepine-7-carboxylic acid, methyl ester (Compound B) or L-Phenylalanine was analyzed by HPLC.
(§1) HPLC analysis was performed using a Hewlett-Packard (HP) 1090 instrument with a Vydac C-18 reverse phase column. The mobile phase solvent A containing 0.1% trifluoroacetic acid (TFA) in water and solvent B containing 0.1% TFA in 70% acetonitrile: 30% water. The following gradient of solvent A and B was used for the separation of substrates and products:
(§2) 0-15 min: 50% B,15-25 min: 100% B, 25-26 min: 0% B, and 26-30 min: 0% B. The flow rate was 1 mL/min. The column temperature was ambient, and the detection wavelength was at 215 nm. Under these conditions, the retention times for Compound A, Compound B, CBZ-L-Phenylalanine and L-Phenylalanine are 15.48 min., 7.28 min., 16.99 min. and 7.35 min., respectively. All other CBZ-containing compounds were also analyzed using these conditions.

[2] = system: CBZ-deprotecting enzyme (cell extracts of Sphingomonas paucimobilis ATCC 202027); experiment: CBZ-deprotection using cell extract; assay type: biochemical; details: 42° C., 18-20 hours, HPLC
Procedure: as §1, §2
Preparation of cell extracts were carried out at 4-7° C. Cells were washed with 50 mM potassium phosphate buffer, pH 7.0, and the washed cells (100 g) were suspended in 500 mL of buffer A (50 mM phosphate buffer, pH 7.0 containing 10% glycerol, and 2 mM DTT). To the cell suspensions, 1 mM phenylmethylsulfonyl fluoride (PMSF) solution in isopropanol was added. Cell suspensions (20% W/V, wet cells) were passed through a Microfluidizer (Microfluidics, Inc) at 12,000 psi (two passages) and disintegrated cells were centrifuged at 25,000×g for 30 min at 4° C. The supernatant solution obtained after centrifugation is referred to as cell extract.
The cell extracts was used in deprotecting the CBZ-group from various compounds. It was useful in deprotecting CBZ-groups in various processes. Various D and L-CBZ-protected amino acids were incubated with the cell extract at 42° C. for 18 -20 hours. The reactions were stopped by addition of 2 volumes of 50% acetonitrile containing 0.4% trifluro acetic acid (TFA). The results shown in table 2 indicate that the enzyme is specific in hydrolyzing the CBZ-group from CBZ-protected L-amino acids.

[3] = system: CBZ-deprotecting enzyme; experiment: Deprotection of CBZ-containing compounds with purified CBZ-deprotecting enzyme; assay type: biochemical, Sphingomonas paucimobilis; details: for % Conversion: purified enzyme
Procedure: Compound A or CBZ-phenylalanine at 0.5mg was incubated with 0.4 mL of cell extract/fractions in 50 mM phosphate buffer, pH 7 at 45° C. for 18 hours. The reaction is stopped by the addition 1 ml of 50% acetonitrile containing 0.4% TFA. The samples were filtered and analyzed by HPLC for product and starting material. All the purification steps were carried out at room temperature. The purification of the enzyme was carried out using CBZ-L-phenylalanine as the substrate. The cell extract, prepared as above, was batch adsorbed with DEAE-cellulose (pre-equilibrated with buffer A) for 2 hours. The follow-through, which contained the active enzyme, was precipitated with ammonium sulfate (516 g/L) with constant stirring for 2 hours. The resulting precipitate obtained by centrifugation (15,000 rpm at 4° C.) was solubilized in buffer A containing 1M ammonium sulfate, loaded on to phenylsepharose (20 mL column which was pre-equlibriaiated with buffer A containing 1M ammonium sulfate). The column was sequentially washed with the buffer A containing 1M ammonium sulfate, 0.5M ammonium sulfate and 0.2M ammonium sulfate. Finally, the enzyme was eluted with buffer A. The fractions containing active enzyme were pooled (30 mL) and concentrated with Amicon PM-10 membrane (8 mL). The enzyme was then loaded on to S-200 gel-filtration column (400 mL column). The enzyme was eluted with buffer A with a flow rate of 0.8 mL/min. With these steps the enzyme was purified more than 150-fold with a specific activity of 13.9 units/mg protein (table 3). The unit is defined as μmole of product formed/min/mg of protein. The enzyme is a […] protein with a molecular weight of 154,000 daltons with a subunit molecular weight of 45,000 daltons, as determined by SDS-PAGE. The purified enzyme prepared as described in this section has been used to deprotect CBZ-containing compounds as shown in table 4.

[4] = system: recombinant N-CBZ-deprotecting enzyme; experiment: Deprotection with recombinant enzyme (cell extract from E. coli BL21 (DE3)(pBMS2000-cbz)); assay type: biochemical, Sphingomonas paucimobilis; details: 0.5 mg substrate, 0.5 ml cell extract, 28° C., 1 hr, HPLC
Procedure: The reaction contained 0.5 mg of CBZ-L-phe and 0.5 ml of cell extract from E. coli BL21 (DE3)(pBMS2000-cbz) that expressed the deprotecting enzyme. Preparation of cell extract was as follows: 2 g of recombinant cells were suspended in 10 mL buffer A (50 mM phosphate buffer, pH 7.5, 1 mM EDTA), sonicated for 2 minutes (20 seconds pulse on and 30 seconds pulse off) using a model 550 Sonic Dismembrator from Misonix Inc., Farmingdale, N.Y. The disintegrated cells were centrifuged for 15 min at 8000 rpm at 4° C. and the resulting supernatant, referred to as a cell extract, was used for these studies. The reactions were carried out in a culture tube at 28° C. After 1 hr, samples were quenched with 1 ml of acetonitrile and analyzed by HPLC (described earlier).

O=C(N[C@@H](Cc1ccccc1)C(=O)O)OCc1ccccc1 [CBZ-L-Phenylalanine, N-α-CBZ-L-phenylalanine]
% Conversion [1]: 100%
% Conversion [2]: 100%
% Conversion [3]: 100%
deprotection of the substrate [4]: complete deprotection

COC(=O)[C@@H]1CCC[C@@H]2SCC[C@H](NC(=O)OCc3ccccc3)C(=O)N21 [Compound A, [4S-(4α,7α, 10aβ)]-Octahydro-5-oxo-4-[[(phenylmethoxy)carbonyl]amino]-7H-pyrido-[2,1-b] [1,3]thiazepine-7-carboxylic acid, methyl ester]
% Conversion [1]: 100%
% Conversion [2]: 95%
% Conversion [3]: 100%

CC(C)C[C@@H](NC(=O)OCc1ccccc1)C(=O)O [N-α-CBZ-D-Leucine]
% Conversion [2]: 1.2%

O=C(O)[C@H]1CCCN1C(=O)OCc1ccccc1 [N-α-CBZ-D-Proline]
% Conversion [2]: 0%

O=C(N[C@H](Cc1ccccc1)C(=O)O)OCc1ccccc1 [N-α-CBZ-D-phenylalanine]
% Conversion [2]: 0%

O=C(N[C@H](Cc1ccc(O)cc1)C(=O)O)OCc1ccccc1 [N-α-CBZ-D-tyrosine]
% Conversion [2]: 1.58%

CC(C)C[C@H](NC(=O)OCc1ccccc1)C(=O)O [N-α-CBZ-L-Leucine]
% Conversion [2]: 100%

NCCCC[C@H](NC(=O)OCc1ccccc1)C(=O)O [N-α-CBZ-L-Lysine, N-α-CBZ-L-lysine]
% Conversion [2]: 52%

O=C(O)[C@@H]1CCCN1C(=O)OCc1ccccc1 [N-α-CBZ-L-Proline]
% Conversion [2]: 100%

O=C(N[C@@H](Cc1ccc(O)cc1)C(=O)O)OCc1ccccc1 [N-α-CBZ-L-tyrosine]
% Conversion [2]: 100%

O=C(NCCCC[C@H](NC(=O)OCc1ccccc1)C(=O)O)OCc1ccccc1 [N-α-ε-(CBZ)2-L-Lysine]
% Conversion [2]: 24%

N[C@H](CCCCNC(=O)OCc1ccccc1)C(=O)O [N-ε-CBZ-D-Lysine]
% Conversion [2]: 7%

O-α-CBZ-L-tyrosine
% Conversion [2]: 100%

B1: CBZ-deprotecting enzyme: enzyme purified from Sphingomonas paucimobilis ATCC 202027 that removes CBZ from protected amines and alcohols; SEQ ID NO:2 (protein, listed as Sphingomonas paucimobilis)
chain: MVQPTPTPQSELPGLIARDMEGLMTLYRDLHANPELSLQEVNTAAKLAKRLKAMKFDVTEKVGGTGVVAVMKNGSGPVLLIRADMDGLPVVEQTGLDFASKVRTKTPEGVETGVMHACGHDTHMTAFIETAKLLSSQKDKWKGTLVMILQPAEEVGKGARDMLEDGLYTRFPRPTHAIAFHDAANLQAGVVGYTPGYALANVDSVDIVVKGLGGHGAYPQTTRDPIVLGSRIVTSLQTLVSREQDPQDPAVVTVGSFQAGAKHNIIPDQALLLLTVRSYSDETRAKLIKGIERIARGEAIAAGVPDDKMPVVSVKDEFTPSTYNPPEFAEQMGALLKGHFAEGRVVKTPAVMGGEDFGRFYRADKSINSFIFWVGGVPADKMAAAQAGQITLPSLHSPFWAPEADKVIATASEAMTVLAMDILKKD
specific activity ([3]; purified enzyme after S-200 gel filtration, CBZ-L-phenylalanine as substrate): 13.9 units/mg protein
